This experiment has as its target T1, CDK2/CycE (Homo sapiens, UniProt P24941).
T1 construct: GST; purchased ProQinase GmbH (Freiburg, Germany); host or cells: insect cells (Sf9)
The experiment can be described thus: CDK2/CycE kinase assay (TR-FRET). The experiment is classed as biochemical. Particulars: avg, read-out: CDK2 avg (IC50 [mol/l]). An excerpt:
CDK2/CycE -inhibitory activity of compounds of the present invention was quantified employing the CDK2/CycE TR-FRET assay as described in the following paragraphs.
Recombinant fusion proteins of GST and human CDK2 and of GST and human CycE, expressed in insect cells (Sf9) and purified by Glutathion-Sepharose affinity chromatography, were purchased from ProQinase GmbH (Freiburg, Germany). As substrate for the kinase reaction biotinylated peptide biotin-Ttds-YISPLKSPYKISEG (C-terminus in amid form) was used which can be purchased e.g. form the company JERINI peptide technologies (Berlin, Germany).
For the assay 50 nl of a 100fold concentrated solution of the test compound in DMSO was pipetted into a black low volume 384we11 microtiter plate (Greiner Bio-One, Frickenhausen, Germany), 2 μl of a solution of CDK2/CycE in aqueous assay buffer [50 mM Tris/HCl pH 8.0, 10 mM MgCl2, 1.0 mM dithiothreitol, 0.1 mM sodium ortho-vanadate, 0.01% (v/v) Nonidet-P40 (Sigma)] were added and the mixture was incubated for 15 min at 22° C. to allow pre-binding of the test compounds to the enzyme before the start of the kinase reaction. Then the kinase reaction was started by the addition of 3 μl of a solution of adenosine-tri-phosphate (ATP, 16.7 μM=>final conc. in the 5 μl assay volume is 10 μM) and substrate (1.25 μM=>final conc. in the 5 μl assay volume is 0.75 μM) in assay buffer and the resulting mixture was incubated for a reaction time of 25 min at 22° C. The concentration of CDK2/CycE was adjusted depending of the activity of the enzyme lot and was chosen appropriate to have the assay in the linear range, typical concentrations were in the range of 130 ng/ml. The reaction was stopped by the addition of 5 μl of a solution of TR-FRET detection reagents (0.2 μM streptavidine-XL665 [Cisbio Bioassays, Codolet, France] and 1 nM anti-RB(pSer807/pSer811)-antibody from BD Pharmingen [#558389] and 1.2 nM LANCE EU-W1024 labeled anti-mouse IgG antibody [Perkin-Elmer, product no. AD0077, as an alternative a Terbium-cryptate-labeled anti-mouse IgG antibody from Cisbio Bioassays can be used]) in an aqueous EDTA-solution (100 mM EDTA, 0.2% (w/v) bovine serum albumin in 100 mM HEPES/NaOH pH 7.0).
The resulting mixture was incubated 1 h at 22° C. to allow the formation of complex between the phosphorylated biotinylated peptide and the detection reagents. Subsequently the amount of phosphorylated substrate was evaluated by measurement of the resonance energy transfer from the Eu-chelate to the streptavidine-XL. Therefore, the fluorescence emissions at 620 nm and 665 nm after excitation at 350 nm was measured in a TR-FRET reader, e.g. a Rubystar (BMG Labtechnologies, Offenburg, Germany) or a Viewlux (Perkin-Elmer). The ratio of the emissions at 665 nm and at […] was taken as the measure for the amount of phosphorylated substrate. The data were normalised (enzyme reaction without inhibitor=0% inhibition, all other assay components but no enzyme=100% inhibition).
On the technique in general: Time-resolved FRET reads energy transfer from a long-lived donor to a nearby acceptor.
`Cc1nsc(Nc2cnc(C(F)(F)F)cn2)c1C(=O)Nc1ccc(OC[C@H]2CCN(CC(F)(F)F)C2)nc1` (racemic) [Example 133, 3-Methyl-N-(6-{[(SR)-1-(2,2,2-trifluoroethyl)pyrrolidin-3-yl]methoxy}pyridin-3-yl)-5-{[5-(trifluoromethyl)pyrazin-2-yl]amino}-1,2-thiazole-4-carboxamide]: the IC50 is > 20 µM.
`Cc1nsc(Nc2cnc(C(F)(F)F)cn2)c1C(=O)Nc1ccc(OC2CCNCC2)nc1` [Example 6, 3-Methyl-N-[6-(piperidin-4-yloxy)pyridin-3-yl]-5-{[5-(trifluoromethyl)pyrazin-2-yl]amino}-1,2-thiazole-4-carboxamide]: the IC50 was ≥ 20 µM.
The same measure for `Cc1nsc(Nc2cnc(C(F)(F)F)cn2)c1C(=O)Nc1ccc(OC2CCN(CCF)CC2)nc1` [Example 7, N-(6-{[1-(2-Fluoroethyl)piperidin-4-yl]oxy}pyridin-3-yl)-3-methyl-5-{[5-(trifluoromethyl)pyrazin-2-yl]amino}-1,2-thiazole-4-carboxamide]: ≥ 20 µM; for `Cc1nsc(Nc2cnc(C(F)(F)F)cn2)c1C(=O)Nc1ccc(OC2CCN(CC(F)F)CC2)nc1` [Example 8, N-(6-{[1-(2,2-Difluoroethyl)piperidin-4-yl]oxy}pyridin-3-yl)-3-methyl-5-{[5-(trifluoromethyl)pyrazin-2-yl]amino}-1,2-thiazole-4-carboxamide]: ≥ 20 µM; for `Cc1nsc(Nc2cnc(C(F)(F)F)cn2)c1C(=O)Nc1ccc(OC2CCN(CC(F)(F)F)CC2)nc1` [Example 9, -Methyl-N-(6-{[1-(2,2,2-trifluoroethyl)piperidin-4-yl]oxy}pyridin-3-yl)-5-{[5-(trifluoromethyl)pyrazin-2-yl]amino}-1,2-thiazole-4-carboxamide]: ≥ 20 µM.
The same measure for `Cc1nsc(Nc2cnc(C(F)(F)F)cn2)c1C(=O)Nc1ccc(OC2CCN(CCC(F)(F)F)CC2)nc1` [Example 10, 3-Methyl-5-{[5-(trifluoromethyl)pyrazin-2-yl]amino}-N-(6-{[1-(3,3,3-trifluoropropyl)-piperidin-4-yl]oxy}pyridin-3-yl)-1,2-thiazole-4-carboxamide]: ≥ 20 µM; for `CC(=O)N1CCC(Oc2ccc(NC(=O)c3c(C)nsc3Nc3cnc(C(F)(F)F)cn3)cn2)CC1` [Example 11, N-{6-[(1-Acetylpiperidin-4-yl)oxy]pyridin-3-yl}-3-methyl-5-{[5-(trifluoromethyl)-pyrazin-2-yl]amino}-1,2-thiazole-4-carboxamide]: ≥ 20 µM.
In the case of `Cc1nsc(Nc2cncc(C(F)(F)F)n2)c1C(=O)Nc1ccc(OC2CCN(C(=O)OC(C)(C)C)CC2)nc1` [Example 12, tert-Butyl 4-[(5-{[(3-methyl-5-{[6-(trifluoromethyl)pyrazin-2-yl]amino}-1,2-thiazol-4-yl)carbonyl]amino}pyridin-2-yl)oxy]piperidine-1-carboxylate] it was ≥ 20 µM; in that of `Cc1nsc(Nc2cnc(C(F)(F)F)cn2)c1C(=O)Nc1ccc(C(=O)OC(C)(C)C)cc1` [Example 96, tert-Butyl 4-{[(3-methyl-5-{[5-(trifluoromethyl)pyrazin-2-yl]amino}-1,2-thiazol-4-yl)carbonyl]amino}benzoate], ≥ 20 µM.
As to `Cc1nsc(Nc2cnc(C(F)(F)F)cn2)c1C(=O)Nc1ccc(C(=O)O)cc1` [Example 97, 4-{[(3-Methyl-5-{[5-(trifluoromethyl)pyrazin-2-yl]amino}-1,2-thiazol-4-yl)carbony]-amino}benzoic acid], the IC50 was ≥ 20 µM.
In the case of `Cc1nsc(Nc2ccc(C#N)cn2)c1C(=O)Nc1ccc(C(=O)OC(C)(C)C)cc1` [Example 98, tert-Butyl 4-[({5-[(5-cyanopyridin-2-yl)amino]-3-methyl-1,2-thiazol-4-yl}carbonyl)-amino]benzoate] it was ≥ 20 µM; in that of `Cc1nsc(Nc2cnc3ccccc3n2)c1C(=O)Nc1cccc(C(=O)NCC(=O)O)c1` [Example 99, N-[3-({[3-Methyl-5-(quinoxalin-2-ylamino)-1,2-thiazol-4-yl]carbonyl}amino)benzoy]-glycine], ≥ 20 µM.
Take `COC(=O)CNC(=O)c1cccc(NC(=O)c2c(C)nsc2Nc2cnc3ccccc3n2)c1` [Example 100, Methyl N-[3-({[3-methyl-5-(quinoxalin-2-ylamino)-1,2-thiazol-4-yl]carbonyl}amino)-benzoyl]glycinate]: the IC50 is ≥ 20 µM.
For the compound `Cc1nsc(Nc2cnc3ccccc3n2)c1C(=O)Nc1cccc(C(=O)N2CCNCC2)c1` [Example 101, 3-Methyl-N-[3-(piperazin-1-ylcarbonyl)phenyl]-5-(quinoxalin-2-ylamino)-1,2-thiazole-4-carboxamide], the IC50 was ≥ 20 µM.
The same measure for `Cc1nsc(Nc2cnc3ccccc3n2)c1C(=O)Nc1cccc(C(=O)N2CCN(C)CC2)c1` [Example 102, 3-Methyl-N-{3-[(4-methylpiperazin-1-yl)carbonyl]phenyl}-5-(quinoxalin-2-ylamino)-1,2-thiazole-4-carboxamide]: ≥ 20 µM.
The same measure for `Cc1nsc(Nc2cnc3ccccc3n2)c1C(=O)Nc1cccc(C(=O)N[C@@H](CCC(N)=O)C(=O)O)c1` [Example 103, N^2-[3-({[3-Methyl-5-(quinoxalin-2-ylamino)-1,2-thiazol-4-yl]carbonyl}amino)-benzoyl]glutamine]: ≥ 20 µM; for `Cc1nsc(Nc2cnc3ccccc3n2)c1C(=O)Nc1cccc(C(=O)N[C@H](C(=O)O)[C@@H](C)OC(C)(C)C)c1` [Example 104, O-tert-Butyl-N-[3-({[3-methyl-5-(quinoxalin-2-ylamino)-1,2-thiazol-4-yl]-carbonyl}amino)benzoyl]threonine]: ≥ 20 µM.
The same measure for `Cc1nsc(Nc2cnc3ccccc3n2)c1C(=O)Nc1cccc(C(=O)N[C@H](C(=O)O)[C@@H](C)O)c1` [Example 105, N-[3-({[3-methyl-5-(quinoxalin-2-ylamino)-1,2-thiazol-4-yl]carbonyl}amino)-benzoyl]threonine]: ≥ 20 µM.
For the compound `Cc1noc(-c2cccc(NC(=O)c3c(C)nsc3Nc3cnc4ccccc4n3)c2)n1` [Example 106, 3-Methyl-N-[3-(3-methyl-1,2,4-oxadiazol-5-yl)phenyl]-5-(quinoxalin-2-ylamino)-1,2-thiazole-4-carboxamide], the IC50 is ≥ 20 µM.
Turning to `Cc1nsc(Nc2cnc3ccccc3n2)c1C(=O)Nc1cccc(-c2nnc(C(C)(C)C)o2)c1` [Example 107, N-[3-(5-tert-Butyl-1,3,4-oxadiazol-2-yl)phenyl]-3-methyl-5-(quinoxalin-2-ylamino)-1,2-thiazole-4-carboxamide], the IC50 was ≥ 20 µM.
`Cc1nsc(Nc2cnc3ccccc3n2)c1C(=O)Nc1cccc(-c2nc(C(C)(C)C)no2)c1` [Example 108, N-[3-(3-tert-Butyl-1,2,4-oxadiazol-5-yl)phenyl]-3-methyl-5-(quinoxalin-2-ylamino)-1,2-thiazole-4-carboxamide]: the IC50 is ≥ 20 µM.
`Cc1nsc(Nc2cnc(C(F)(F)F)cn2)c1C(=O)Nc1ccc(OCC2CCN(C(=O)OC(C)(C)C)C2)nc1` (stereo not drawn) [Example 109, tert-Butyl 3-{[(5-{[(3-methyl-5-{[5-(trifluoromethyl)pyrazin-2-yl]amino}-1,2-thiazol-4-yl)carbonyl]amino}pyridin-2-yl)oxy]methyl}pyrrolidine-1-carboxylate]: the IC50 was ≥ 20 µM.
The same measure for `Cc1nsc(Nc2cncc(C(F)(F)F)n2)c1C(=O)Nc1ccc(OCC2CCN(C(=O)OC(C)(C)C)C2)nc1` (stereo not drawn) [Example 110, tert-Butyl 3-{[(5-{[(3-methyl-5-{[6-(trifluoromethyl)pyrazin-2-yl]amino}-1,2-thiazol-4-yl)carbonyl]amino}pyridin-2-yl)oxy]methyl}pyrrolidine-1-carboxylate]: ≥ 20 µM; for `CNS(=O)(=O)c1ccc(NC(=O)c2c(C)nsc2Nc2cnc3ccccc3n2)cc1` [Example 111, 3-Methyl-N-[4-(methylsulfannoyl)phenyl]-5-(quinoxalin-2-ylamino)-1,2-thiazole-4-carboxamide]: ≥ 20 µM.

For the origin of these results see patent US20170334899A1, “AMINO-SUBSTITUTED ISOTHIAZOLES” (Bayer Pharma Aktiengesellschaft, priority 2014, published 2017).
